Patent publication US20230398125A1, “TREATING HEPATITIS” (Albireo AB, priority 2022, published 2023)
Read-outs that look alike come from different tables or passages of the source.

What was measured:
[1] = target: T1, M. fascicularis Ntcp (Macaca fascicularis, UniProt G7PAR4); experiment: [3H]TC transport in HEK293 cells transiently transfected with M. fascicularis Ntcp; assay type: cell-based; conditions: read-out: IC50 bile acid transport via M. fascicularis Ntcp
T1 construct: expressed in transfected cells; host or cells: GripTite 293 MSR (HEK293) cells, transient, Lipofectamine 2000
T1 sequence (G7PAR4 1-349): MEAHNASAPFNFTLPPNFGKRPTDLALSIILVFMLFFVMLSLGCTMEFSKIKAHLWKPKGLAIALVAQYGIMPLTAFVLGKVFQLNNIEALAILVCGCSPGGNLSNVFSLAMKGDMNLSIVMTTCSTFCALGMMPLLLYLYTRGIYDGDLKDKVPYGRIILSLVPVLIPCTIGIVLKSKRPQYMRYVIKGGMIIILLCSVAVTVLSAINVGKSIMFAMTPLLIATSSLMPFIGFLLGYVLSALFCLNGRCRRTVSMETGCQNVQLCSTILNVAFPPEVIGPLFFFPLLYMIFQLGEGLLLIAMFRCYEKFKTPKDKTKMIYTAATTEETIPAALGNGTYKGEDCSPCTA
Method: GripTite 293 MSR cells (here referred to as HEK293 cells, Invitrogen), a modified HEK293 cell line expressing human macrophage scavenger receptor for stronger adhesion, were maintained at 37° C., 5% CO2 and 95% humidity in DMEM/F-12 medium (Thermo Fisher Scientific) supplemented with 10% fetal calf serum (Sigma), 4 mM L-glutamine (PAA) and penicillin/streptomycin. HEK293 cells were transiently transfected with the M. fascicularis Ntcp cDNA construct for transport and peptide binding assays. Transfection was performed with Lipofectamine 2000 (Thermo Fisher Scientific). […]
Bile acid transport measurements were performed in the NTCP-HEK293 cells with tritium-labelled taurocholic acid (here referred to as [^3H]TC) (20 Ci/mmol, 0.09 mCi/mL, Perkin Elmer, Waltham, USA). […] Cell-associated radioactivity of [^3H]TC or [^3H]preS1 was quantified by liquid scintillation counting in a Packard Microplate Scintillation Counter TopCount NXT (Packard Instrument Company, Meriden, USA). Transport rates and [^3H]preS1 binding were determined in counts per minute (cpm). The mean of the 0% control was subtracted and the net [^3H]TC transport rates and net [^3H]preS1 binding rates, respectively, were expressed as % of control. IC50 values were calculated from quadruplicate determinations by GraphPad Prism 6 (GraphPad, San Diego, Calif., USA). […]

[2] = Pharmacokinetic phase: plasma exposure after oral dosing in non-infected PXB mice; assay type: in vivo; conditions: for concentration at 0.5 h / concentration at 1 h / concentration at 2 h / concentration at 4 h / concentration at 6 h / concentration at 24 h: PXB, mouse, plasma, po
Method: Thirty microliters (30 μL) of blood were collected from all animals under isoflurane anesthesia via the retro-orbital plexus/sinus using sodium heparin-coated calibrated pipettes according to the collection schedule shown in Table 7. The individual blood samples of the animals were transferred to labeled microtubes and stored under chilled conditions until centrifugation at 3500×g, 5° C. for 10 minutes to obtain plasma. Individual plasma samples were transferred into separately labeled microtubes and snap frozen in liquid nitrogen. The plasma exposure of Compound 1 from the pharmacokinetic phase was measured via LC/MS- MS. The lower limit of quantitation was 1 ng/mL.

[3] = 10 mg/kg, non-infected PXB mice, 10 mg/kg p.o., animal 101, read-out: Plasma conc.
[4] = 10 mg/kg, non-infected PXB mice, 10 mg/kg p.o., animal 102, read-out: Plasma conc.
[5] = 10 mg/kg, non-infected PXB mice, 10 mg/kg p.o., animal 103, read-out: Plasma conc.
[6] = 10 mg/kg, non-infected PXB mice, 10 mg/kg p.o., mean of 3 animals, read-out: Plasma conc. Mean ± SD
[7] = 10 mg/kg, non-infected PXB mice, 10 mg/kg p.o., animal 201, read-out: Plasma conc.
[8] = 10 mg/kg, non-infected PXB mice, 10 mg/kg p.o., animal 202, read-out: Plasma conc.
[9] = 10 mg/kg, non-infected PXB mice, 10 mg/kg p.o., animal 203, read-out: Plasma conc.
[10] = 30 mg/kg, non-infected PXB mice, 30 mg/kg p.o., animal 301, read-out: Plasma conc.
[11] = 30 mg/kg, non-infected PXB mice, 30 mg/kg p.o., animal 302, read-out: Plasma conc.
[12] = 30 mg/kg, non-infected PXB mice, 30 mg/kg p.o., animal 303, read-out: Plasma conc.
[13] = 30 mg/kg, non-infected PXB mice, 30 mg/kg p.o., mean of 3 animals, read-out: Plasma conc. Mean ± SD
[14] = 30 mg/kg, non-infected PXB mice, 30 mg/kg p.o., animal 401, read-out: Plasma conc.
[15] = 30 mg/kg, non-infected PXB mice, 30 mg/kg p.o., animal 402, read-out: Plasma conc.
[16] = 30 mg/kg, non-infected PXB mice, 30 mg/kg p.o., animal 403, read-out: Plasma conc.

SMILES: CCCCC1CN(c2ccccc2)c2cc(SC)c(O/C=C(\F)C(=O)O)cc2S(=O)(=O)N1C (stereo not drawn) [Compound 1, (Z)-3-((3-butyl-2-methyl-7-(methylthio)-1,1-dioxido-5-phenyl-2,3,4,5-tetrahydro-1,2,5-benzothiadiazepin-8-yl)oxy)-2-fluoroacrylic acid]
- IC50 [1]: 200 nM
- plasma exposure versus dose ([2]; 10 and 30 mg/kg p.o.): increased with increased dose
- detection in plasma ([2]; 10 and 30 mg/kg p.o., non-infected PXB mice): detected in plasma throughout the 24-hour time period
- concentration at 0.5 h [2, 3]: 1290 ng/mL
- concentration at 0.5 h [2, 4]: 2650 ng/mL
- concentration at 0.5 h [2, 5]: 727 ng/mL
- concentration at 0.5 h [2, 6]: 1560 ± 990 ng/mL
- concentration at 1 h [2, 7]: 492 ng/mL
- concentration at 1 h [2, 8]: 763 ng/mL
- concentration at 1 h [2, 9]: 1810 ng/mL
- concentration at 1 h [2, 6]: 1020 ± 690 ng/mL
- concentration at 2 h [2, 3]: 194 ng/mL
- concentration at 2 h [2, 4]: 322 ng/mL
- concentration at 2 h [2, 5]: 177 ng/mL
- concentration at 2 h [2, 6]: 231 ± 79 ng/mL
- concentration at 4 h [2, 7]: 111 ng/mL
- concentration at 4 h [2, 8]: 61.4 ng/mL
- concentration at 4 h [2, 9]: 587 ng/mL
- concentration at 4 h [2, 6]: 253 ± 290 ng/mL
- concentration at 6 h [2, 3]: 46.2 ng/mL
- concentration at 6 h [2, 4]: 63.5 ng/mL
- concentration at 6 h [2, 5]: 130 ng/mL
- concentration at 6 h [2, 6]: 80 ± 44 ng/mL
- concentration at 24 h [2, 7]: 25.3 ng/mL
- concentration at 24 h [2, 8]: 27.2 ng/mL
- concentration at 24 h [2, 9]: 1.4 ng/mL
- concentration at 24 h [2, 6]: 18 ± 14 ng/mL
- concentration at 0.5 h [2, 10]: 1880 ng/mL
- concentration at 0.5 h [2, 11]: 2910 ng/mL
- concentration at 0.5 h [2, 12]: 6810 ng/mL
- concentration at 0.5 h [2, 13]: 3870 ± 2600 ng/mL
- concentration at 1 h [2, 14]: 4560 ng/mL
- concentration at 1 h [2, 15]: 5320 ng/mL
- concentration at 1 h [2, 16]: 1470 ng/mL
- concentration at 1 h [2, 13]: 3780 ± 2000 ng/mL
- concentration at 2 h [2, 10]: 2420 ng/mL
- concentration at 2 h [2, 11]: 590 ng/mL
- concentration at 2 h [2, 12]: 3040 ng/mL
- concentration at 2 h [2, 13]: 2020 ± 1300 ng/mL
- concentration at 4 h [2, 14]: 1120 ng/mL
- concentration at 4 h [2, 15]: 1090 ng/mL
- concentration at 4 h [2, 16]: 217 ng/mL
- concentration at 4 h [2, 13]: 811 ± 510 ng/mL
- concentration at 6 h [2, 10]: 554 ng/mL
- concentration at 6 h [2, 11]: 99.8 ng/mL
- concentration at 6 h [2, 12]: 1490 ng/mL
- concentration at 6 h [2, 13]: 715 ± 700 ng/mL
- concentration at 24 h [2, 14]: 230 ng/mL
- concentration at 24 h [2, 15]: 229 ng/mL
- concentration at 24 h [2, 16]: 148 ng/mL
- concentration at 24 h [2, 13]: 202 ± 47 ng/mL
